Reference: paper PMC11974712 (bioRxiv, 2025)

Biological target: Human Fatty Acid Binding Protein (FABP4) (Homo sapiens, UniProt P15090)
Test: Binding inhibition assay: displacement of the fluorescent probe ANS from FABP4
Conditions: for binding to FABP4 (in words): ANS displacement

Chain of Human Fatty Acid Binding Protein (FABP4) (P15090 whole entry): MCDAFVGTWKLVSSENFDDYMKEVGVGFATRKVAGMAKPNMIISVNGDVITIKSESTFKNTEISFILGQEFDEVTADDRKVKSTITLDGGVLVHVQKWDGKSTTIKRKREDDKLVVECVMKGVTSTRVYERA

Row | binding to FABP4 (in words) | Kd [µM] | SMILES | fold increase in affinity relative to hydrogenated analog heptanoic acid (ratio of Kd values)
1 | no detectable binding | – | CCCC(=O)O [Butanoic Acid] | –
2 | – | 145 ± 3.1 | CCCCCCC(=O)O [Heptanoic Acid] | –
3 | no detectable binding | – | CCCCCC(=O)O [Hexanoic Acid] | –
4 | – | < 1 | O=C(O)C(F)(F)C(F)(F)C(F)(F)C(F)(F)C(F)(F)C(F)(F)C(F)(F)C(F)(F)C(F)(F)C(F)(F)C(F)(F)F [PFDoA, Perfluorododecanoic Acid] | –
5 | no detectable binding | – | CCCCC(=O)O [Pentanoic Acid] | –

Row | SMILES | binding to FABP4 (in words) | Kd [µM] | fold increase in affinity relative to hydrogenated analog heptanoic acid (ratio of Kd values)
6 | O=C(O)C(F)(F)C(F)(F)C(F)(F)C(F)(F)C(F)(F)C(F)(F)F [PFHpA, Perfluoroheptanoic Acid] | – | 4.46 ± 0.17 | approximately 30 fold
